One assay deals with T1, MAO-A human-recombinant (Homo sapiens, UniProt P21397).
T1 construct: purchased Sigma-Aldrich M7316
T1 sequence (P21397 1-527): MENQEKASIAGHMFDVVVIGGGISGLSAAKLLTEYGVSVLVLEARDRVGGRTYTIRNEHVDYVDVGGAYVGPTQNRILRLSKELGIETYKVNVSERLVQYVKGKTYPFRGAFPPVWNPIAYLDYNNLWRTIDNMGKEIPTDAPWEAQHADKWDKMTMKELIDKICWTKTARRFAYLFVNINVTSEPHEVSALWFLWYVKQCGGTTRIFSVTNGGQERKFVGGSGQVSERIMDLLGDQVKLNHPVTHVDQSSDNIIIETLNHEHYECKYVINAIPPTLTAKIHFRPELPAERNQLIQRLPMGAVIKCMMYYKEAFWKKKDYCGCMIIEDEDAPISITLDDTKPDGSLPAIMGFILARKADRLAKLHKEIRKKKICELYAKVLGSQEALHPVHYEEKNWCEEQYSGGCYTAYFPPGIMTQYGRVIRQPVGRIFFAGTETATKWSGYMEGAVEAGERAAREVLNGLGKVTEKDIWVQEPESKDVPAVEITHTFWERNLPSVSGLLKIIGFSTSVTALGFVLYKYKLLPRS
In words: Monoamine oxidase A (MAO-A) assay (MAO-Glo). To be noted: read-out: MAO A binding. In kind it is biochemical. Here is the method: Monoamine Oxidase A (MAO-A) Assay
Compounds were tested for their capacity to modulate MAO-A activity within the MAO-Glo™ Assay (Promega, Cat.# V1402). In each well of a 96-well plate, 12.5 μl of 4×MAO Substrate solution (end-concentration in assay: 40 μM) were mixed with 12.5 μl of a 4× solution of the corresponding test compound (end-concentrations ranged from 10 μM to 1.37 nM). In the absence of a test compound (i.e. to gauge the total MAO-A activity), the corresponding volume of MAO Reaction Buffer (100 mM HEPES (pH 7.5), 5% glycerol) was added. To initiate the MAO reaction, 25 μl of 2×MAO-A enzyme solution (MAO-A human-recombinant, Sigma-Aldrich, Cat.# M7316; 1 μg MAO-A enzyme/25 μl MAO Reaction Buffer) were added per well and mixed briefly. For negative control reactions, 25 μl of MAO Reaction Buffer were added. Thereafter the plate was incubated at room temperature for 1 hour, following which, 50 μl of reconstituted Luciferin Detection Reagent were added per well and mixed briefly. The plate was then incubated at room temperature for 20 minutes to generate and stabilize the luminescent signal. The luminescent signal was subsequently measured and recorded on the TopCountNXT™ luminescence counter (PerkinElmer). Data were analyzed and graphs were prepared using the Graphpad Prism 6 software.

For assay [1], the target named is Tau in human Alzheimer disease brain homogenate (stage Braack V), [18F]-labeled Tau-Reference binder (Homo sapiens, UniProt P10636). In words: Tau radio-binding competition assay. As to conditions: competition with [18F]-labeled Tau-Reference binder, human AD brain homogenate. As to the method: Tau Radio-Binding Competition Assay
20 μg of human Alzheimer disease brain homogenate (stage Braack V) was incubated with a dilution series of each test compound (1000 to 0.06 nM) in the presence of 800 Bq of [^18F]-labeled Tau-Reference binder. The samples were shaken at 110 rpm for 45 min at 37° C. Samples were then filtered through GF/B 96 well filter plates and two times washed with 300 μl assay buffer (PBS containing 0.1% BSA and 2% DMSO). Thereafter, filter plates were sealed and a Fuji Film Imaging Plate (BAS-SR2025) were placed on top. The imaging plate was analyzed the next day using a Fuji Film BAS-5000. Non-specific signal was determined with samples containing [^18F]-labeled Tau-Reference binder in the presence of assay buffer missing brain substrate and competitor. Specific binding was calculated by subtracting the non-specific signal from the measured sample signal. The unblocked [^18F]-labeled Tau-Reference binder signal was defined as total binding. IC50 values were calculated by Prism V6 (GraphPad) using total binding as 100%.

The next assay concerns the target T2, MAO-B human-recombinant (Homo sapiens, UniProt P27338).
T2 construct: purchased Sigma-Aldrich M7441
T2 sequence (P27338 1-520): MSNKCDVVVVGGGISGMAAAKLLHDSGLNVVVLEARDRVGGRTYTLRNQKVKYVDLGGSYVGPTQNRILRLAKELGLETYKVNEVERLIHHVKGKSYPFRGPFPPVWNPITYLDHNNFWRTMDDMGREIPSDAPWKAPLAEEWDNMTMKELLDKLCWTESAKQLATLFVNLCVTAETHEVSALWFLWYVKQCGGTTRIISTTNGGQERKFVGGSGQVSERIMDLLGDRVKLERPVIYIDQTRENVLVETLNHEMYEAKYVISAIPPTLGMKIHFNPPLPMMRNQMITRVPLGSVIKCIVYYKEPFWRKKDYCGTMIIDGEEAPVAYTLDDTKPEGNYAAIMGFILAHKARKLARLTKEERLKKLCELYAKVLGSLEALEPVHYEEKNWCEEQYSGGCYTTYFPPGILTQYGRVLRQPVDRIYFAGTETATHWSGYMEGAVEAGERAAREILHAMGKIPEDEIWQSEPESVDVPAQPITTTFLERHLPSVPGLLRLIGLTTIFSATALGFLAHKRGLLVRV
Put plainly: MAO-B assay (MAO-Glo). It is filed as biochemical. As to conditions: read-out: MAO B binding. Here is the method: Compounds were tested for their capacity to modulate MAO-B activity within the MAO-Glo™ Assay (Promega, Cat.# V1402). In each well of a 96-well plate, 12.5 μl of 4×MAO Substrate solution (end-concentration in assay: 4 μM) were mixed with 12.5 μl of a 4× solution of the corresponding test compound (end-concentrations ranged from 10 μM to 1.37 nM). In the absence of a test compound (i.e. to gauge the total MAO-B activity), the corresponding volume of MAO-B Reaction Buffer (100 mM HEPES (pH 7.5), 5% glycerol, 10% dimethyl sulphoxide) was added. To initiate the MAO reaction, 25 μl of 2×MAO-B enzyme solution (MAO-B human—recombinant, Sigma-Aldrich, Cat.# M7441; 1 μg MAO-B enzyme/25 μl MAO-B Reaction Buffer) were added per well and mixed briefly. For negative control reactions, 25 μl of MAO-B Reaction Buffer were added. Thereafter the plate was incubated at room temperature for 1 hour, following which, 50 μl of reconstituted Luciferin Detection Reagent were added per well and mixed briefly. The plate was then incubated at room temperature for 20 minutes to generate and stabilize the luminescent signal. The luminescent signal was subsequently measured and recorded on the TopCountNXT™ luminescence counter (PerkinElmer). Data were analyzed and graphs were prepared using the Graphpad Prism 6 software.

In patent US20180264146A1, “NOVEL IMAGING COMPOUNDS” (AC IMMUNE S.A., priority 2015, published 2018) one finds IC50 data, which are given here for 15 compounds.

Sequence of Tau in human Alzheimer disease brain homogenate (stage Braack V), [18F]-labeled Tau-Reference binder (P10636 623-695 limits assumed): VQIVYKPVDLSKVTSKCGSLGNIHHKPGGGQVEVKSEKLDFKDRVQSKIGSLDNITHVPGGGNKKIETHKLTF

Turning to `F[C@H]1CCN(c2ccc3c(n2)[nH]c2ccncc23)C1` [Example 1], the values for the IC50 (on MAO-A human-recombinant; in assay [1]; on MAO-B human-recombinant) were above 1000 nM, 6 nM and above 1000 nM, respectively.

As to `FCCOC1CCN(c2ccc3c(n2)[nH]c2ccncc23)CC1` [Example 2], the results for the IC50 (at MAO-A human-recombinant; in assay [1]; on MAO-B human-recombinant) were above 6000 nM, 4 nM and above 1000 nM, respectively.

Turning to `FCCOCCOC1CCN(c2ccc3c(n2)[nH]c2ccncc23)CC1` [Example 5], the IC50 was above 2000 nM at MAO-A human-recombinant, 6 nM in assay [1] and above 1000 nM at MAO-B human-recombinant.

As to `F[C@@H]1CCN(c2ccc3c(n2)[nH]c2ccncc23)C1` [Example 6], the IC50 was 940 nM at MAO-A human-recombinant, 7 nM in assay [1] and above 1000 nM at MAO-B human-recombinant.

On to `OC(CF)COC1CCN(c2ccc3c(n2)[nH]c2ccncc23)CC1` (stereo not shown) [Example 7], for which the figures for the IC50 (in assay [1]; at MAO-B human-recombinant) were 3 nM and above 1000 nM, respectively.

For `OC1(CF)CCN(c2ccc3c(n2)[nH]c2ccncc23)CC1` [Example 8], the IC50 at MAO-A human-recombinant is 940 nM; in assay [1] it was 40 nM; on MAO-B human-recombinant it was above 1000 nM.

Take `FC1CC2(C1)CN(c1ccc3c(n1)[nH]c1ccncc13)C2` [Example 12]: the IC50 is 570 nM at MAO-A human-recombinant, 13 nM in assay [1] and above 1000 nM at MAO-B human-recombinant.

For the compound `FCCOC1CC2(C1)CN(c1ccc3c(n1)[nH]c1ccncc13)C2` [Example 13], the IC50 on MAO-A human-recombinant was above 2000 nM; in assay [1] it was 16 nM; at MAO-B human-recombinant, above 1000 nM.

For `[2H]C([2H])(F)CCOC1CCN(c2ccc3c(n2)[nH]c2ccncc23)CC1` [Example 19], in assay [1], the IC50 stood at 2.3 nM.

`FCCOCCC1CCN(c2ccc3c(n2)[nH]c2ccncc23)CC1` [Example 21] returned an IC50 in assay [1] of 1.5 nM.

The compound `FCC(F)COC1CCN(c2ccc3c(n2)[nH]c2ccncc23)CC1` (stereo not shown) [Example 24] had an IC50 in assay [1] of 8 nM.

On to `F[C@@H]1CCCN(c2ccc3c(n2)[nH]c2ccncc23)C1` [Example 25], for which the IC50 at MAO-A human-recombinant was 1020 nM; in assay [1] it was 5.4 nM.

Compound `F[C@H]1CCCN(c2ccc3c(n2)[nH]c2ccncc23)C1` [Example 26] returned an IC50 in assay [1] of 16 nM.

`FC1CCN(c2ccc3c(n2)[nH]c2ccncc23)CC1` [Example 27] displayed an IC50 in assay [1] of 3 nM.

Compound `FC1CC2(CCN(c3ccc4c(n3)[nH]c3ccncc34)CC2)C1` [Example 28] yielded an IC50 in assay [1] of 5.2 nM.
